Assay results: patent publication US20240325370A1, “THERAPEUTIC REGIMENS OF A DEGRADER OF BRD9” (FOGHORN THERAPEUTICS INC., priority 2021, published 2024)
Read-outs that look alike come from different tables or passages of the source.

What was measured:
[1] = Interconversion between Enantiomer 1 and Enantiomer 2 in cell medium; assay type: physicochemical; settings: Enantiomer 1 dosing, cell medium 37° C.; for Mean peak area ratio of Enantiomer 2 over Enantiomer 1 peak area ratio: 0.2 µM
Procedure: For the assessment of interconversion between Enantiomer 1 and Enantiomer 2 in cell medium, the following test was performed. […] At designated time point, aliquot (50 μL) was taken and processed by the addition of 150 μL of acetonitrile containing 0.1% formic acid and internal standard for LC/MS-MS analysis. Peak areas of both Enantiomer 1 and Enantiomer 2 were determined for each sample using a chiral specific analytical method.

BRD9 [2] = molecular target: T1, BRD9 (Homo sapiens, UniProt Q9H8M2); assay: BRD9 degradation by western blot in synovial sarcoma cells (SYO-1, ASKA); assay type: cell-based; settings: for DC50: read-out: Fitted DC50
T1 sequence (Q9H8M2 1-597): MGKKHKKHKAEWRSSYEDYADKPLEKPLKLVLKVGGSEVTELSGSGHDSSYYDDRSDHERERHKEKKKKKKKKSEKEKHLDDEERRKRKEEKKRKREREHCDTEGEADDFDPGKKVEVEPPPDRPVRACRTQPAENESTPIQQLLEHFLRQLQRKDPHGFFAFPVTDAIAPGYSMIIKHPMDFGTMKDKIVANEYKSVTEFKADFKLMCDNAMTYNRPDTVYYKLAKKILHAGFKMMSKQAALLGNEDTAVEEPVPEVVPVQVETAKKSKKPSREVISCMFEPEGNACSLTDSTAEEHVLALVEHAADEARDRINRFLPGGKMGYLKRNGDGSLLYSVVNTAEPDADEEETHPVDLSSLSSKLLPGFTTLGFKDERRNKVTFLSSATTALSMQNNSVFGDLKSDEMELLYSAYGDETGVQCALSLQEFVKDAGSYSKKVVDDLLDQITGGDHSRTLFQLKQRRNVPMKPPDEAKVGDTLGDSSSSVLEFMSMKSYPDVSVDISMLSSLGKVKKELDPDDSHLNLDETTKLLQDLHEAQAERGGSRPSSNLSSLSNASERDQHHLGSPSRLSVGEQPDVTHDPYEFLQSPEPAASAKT
Procedure: Method. Synovial sarcoma cells were plated in 6-well plate at […] cells/well and treated with serial concentrations of BRD9 degrader (10 nM top concentration, diluted 1:3) the next day for two time points at 37° C. Cells were then harvested, washed with cold PBS, and frozen in cell pellets at −80° C. Lysates were prepared by resuspending thawed pellets in 1×RIPA Lysis and Extraction buffer (Thermo Fisher, Cat #89900) with 1× Halt™ Protease and Phosphatase Inhibitor Cocktail, EDTA-free (Thermo Fisher, Cat #78441) and 1:1000 dilution Pierce™ Universal Nuclease for Cell Lysis 25ku (Thermo Fisher, Cat #88700). Lysates were incubated on ice for 10 minutes and then centrifuged in 4° C. at maximum speed (15,000 rpm) for 10 minutes. Samples were then analyzed for total protein using BCA protein quantification assay and diluted to 1 ug/μL with lysis buffer and 1× NuPAGE™ LDS Sample Buffer (4×) (Thermo Fisher, Cat #NP0007) and 1×DTT from 30× stock (Cell Signaling Technologies, Cat #14265S). Samples with 20-25 ug of total protein were loaded into 4-12% Bis-Tris Mini-Gel with 1×MES Running buffer and run at 150V for 45 minutes. Gels were transferred using Trans-Blot® Turbo™ Transfer System (semi-dry) at 25V for 10 minutes (High MW setting) on nitrocellulose blots. Blots were blocked in 5% milk in TBST for 1 hour and probed with BRD9 antibody (Bethyl Labs, Cat #A303-781A, 1:750 for SYO1, and Cell Signaling Technologies, Cat #71232S for ASKA) and beta-Actin antibody (Cell Signaling Technologies, Cat #3700, 1:2000) overnight at 4° C. The next day, blots were washed in TBST 3× and probed with 1:5000 IRDye® 680LT Goat anti-Rabbit IgG Secondary Antibody (LICOR, Cat #926-68021) and 1:10000 IRDye® 800CW Goat anti-Mouse IgG Secondary Antibody (LiCOR, Cat #926-32210) in LiCOR Odyssey® Blocking Buffer (TBS) for 1 hour at room temperature. Blots were washed in TBST 3× and scanned at […] wavelength using LiCOR Odyssey® CLx Imaging System. Western blot signal was quantified using same analyses program included in the same machine. BRD9 signal was quantified by normalizing to beta-actin signal and all samples were normalized to DMSO, set as 100% signal.

BRD9 [3] = molecular target: T1, BRD9; assay: Pharmacodynamic activity in SYO-1 xenograft model (tumor BRD9 western blot); assay type: in vivo, mice; parameters: from tissue; host or cells: SYO-1 xenograft tumours in BALB/c nude or NOD SCID mice; settings: SYO-1 xenograft, BALB/c Nude mice; single dose i.v. (Table 6)
Procedure: Method. The SYO-1 tumor cells were maintained in vitro as adherent cells in Dulbecco's Modified Eagle Medium (DMEM) supplemented with 10% fetal bovine serum at 37° C. in an atmosphere of 5% CO2 in air. The cells growing in an exponential growth phase were harvested and counted for tumor inoculation. BALB/c Nude mice (Shanghai Lingchang biological science) were inoculated subcutaneously on the right flank with (5×10^6) in 0.1 mL of phosphate buffered saline (PBS). The treatment-(described in table 6)—was started on day 19 after tumor inoculation, when the average tumor size reached 499 mm^3.
Mice were treated with racemic D1, 1 mg/kg, i.p. for 4 weeks, mice were euthanized, and tumors collected 1, 4, 8, 24, 48 and 72-hour post last dose. Tumors were lysed with 1×RIPA lysis buffer (Boston BioProducts, BP-115D) with protease and phosphatase protein inhibitor (Roche Applied Science #04906837001 & 05892791001). Equal amount of lysate (30 ug) were loaded in 4-12% Bis-Tris Midi Protein Gels in 1×MOPS buffer; samples ran at 120 V for 120 min. Proteins was transferred to membrane (NC) with TransBlot at 250 mA for 150 minute, then membranes were blocked with Odyssey Blocking buffer for 1 hour at room temperature. Membranes were hybridized overnight in cold room with primary antibodies. Images acquired using Li-COR imaging system (Li-COR Biotechnology, Lincoln, Nebraska).
Further study. The other study examined a range of compound D1 dose levels (0.05, 0.25, 1 or 5 mg/kg) formulated in a vehicle of 20% SBECD for tumor BRD9 protein levels up to 144 hours post dose. […] BRD9 protein levels were still depleted by 83.4% and 73.2% at 120 hours (5 days) and 144 hours (6 days), respectively, after a single IV administration of 5 mg/kg of compound D1, which corresponds to ˜2.5 mg/kg of compound S-D1.

BRD9 [4] = molecular target: T1, BRD9; assay: BRD9 degradation by western blot in synovial sarcoma cells (SYO-1, ASKA); assay type: cell-based; settings: 30 minutes, up to 10 µM

## COc1cc(-c2cn(C)c(=O)c3cnc(N4CCC4)cc23)cc(OC)c1CN1CCC(CN2CCC3(CC2)CN(c2ccc4c(c2)C(=O)N([C@@H]2CCC(=O)NC2=O)C4)C3)CC1 (single isomer, unassigned) [Enantiomer 1]
[1]; 0 h
  Mean peak area ratio of Enantiomer 2 over Enantiomer 1 peak area ratio: 0.0
[1]; 0.5 h
  Mean peak area ratio of Enantiomer 2 over Enantiomer 1 peak area ratio: 0.0
[1]; 2 h
  Mean peak area ratio of Enantiomer 2 over Enantiomer 1 peak area ratio: 0.13
  % Enantiomer 2: 12%
[1]; 6 h
  Mean peak area ratio of Enantiomer 2 over Enantiomer 1 peak area ratio: 0.43
  % Enantiomer 2: 30%
BRD9 [2]; ASKA, 0.5 h
  DC50: > 10 nM
BRD9 [2]; ASKA, 2 h
  DC50: 0.38 nM
BRD9 [2]; SYO-1, 1 h
  DC50: 2.8 nM
BRD9 [2]; SYO-1, 6 h
  DC50: 0.066 nM
BRD9 [2]; two synovial sarcoma cell lines, early time point
  potency in degradation of endogenous BRD9 protein: largely inactive or with much reduced degradation potency
BRD9 [3]
  Pharmacodynamic activity: tumor BRD9 protein level by western blot: inactive and did not degrade BRD9 protein
BRD9 [4]
  BRD9 degradation activity: no discernable activity
